{"source": "patent US10508088B2", "about": "“Methods using HDAC11 inhibitors” (FORMA Therapeutics, Inc., priority 2016, dated 2019)", "key": {"HDAC11": {"target": "HDAC11 (Homo sapiens (Human), UniProt Q96DB2)", "sequence (Q96DB2 whole entry)": "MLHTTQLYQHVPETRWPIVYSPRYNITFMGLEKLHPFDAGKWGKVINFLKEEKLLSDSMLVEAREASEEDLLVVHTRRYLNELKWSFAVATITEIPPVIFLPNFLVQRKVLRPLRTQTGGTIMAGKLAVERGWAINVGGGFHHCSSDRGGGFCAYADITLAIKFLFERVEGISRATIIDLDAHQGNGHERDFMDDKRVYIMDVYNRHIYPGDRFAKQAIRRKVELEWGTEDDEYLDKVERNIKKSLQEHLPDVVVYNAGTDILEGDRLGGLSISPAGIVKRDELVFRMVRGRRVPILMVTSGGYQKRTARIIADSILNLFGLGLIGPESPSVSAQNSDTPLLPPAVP", "assay": "HDAC inhibition assay, electrophoretic mobility shift (Nanosyn)", "assay_type": "biochemical", "settings": "for selectivity over HDACs 1-10: HDAC11 versus HDACs 1-10; for IC50: read-out: HDAC Biochemical IC50 HDAC11", "procedure": "This example describes in vitro inhibition properties of exemplary HDAC11 inhibitors for various HDACs. HDAC inhibition assays were performed using an electrophoretic mobility shift assay at Nanosyn, Inc. (Santa Clara, Calif.). Full length human recombinant HDAC proteins were expressed in the baculoviral system and purified by affinity chromatography. A human recombinant HDAC3 was co-expressed with nuclear receptor corepressor (Ncor2). The following peptide substrates were used: FAM-RHKK(Ac)-NH2 for HDAC3, HDAC6 and HDAC8; FITC-H3K27(Ac)-NH2 for HDAC1, HDAC2 and HDAC10; FAM-RHKK(tri-fluor-Ac)-NH2 for HDAC4, HDAC5, HDAC7, HDAC9 and HDAC11. Reactions consisting of compound, enzyme, and substrate were performed in reaction buffer (comprised of 100 mM HEPES, pH7.5, 25 mM KCl, 0.1% bovine serum albumin, 0.01% Triton X-100) at 25° C. and quenched by the addition of termination buffer (100 mM HEPES, pH7.5, 0.01% Triton X-100, 0.05% SDS). The fluorescence intensity of the electrophoretically separated de-acetylated product and substrate peptide were measured and analyzed using the LabChip® 3000 microfluidic electrophoresis instrument (Perkin Elmer/Caliper Life Sciences). The IC50 values of inhibitors were determined by fitting the %-inhibition curves with 4 parameter dose-response model using XLfit 4 software (IDBS)."}, "[1]": {"test_system": "A549 side population stem-like cells (KRAS mutation)", "assay": "Sphere formation assay with stem-like side population NSCLC cells", "assay_type": "cell-based", "settings": "A549 SP cells, 0.5-5.0 μM, Day 10", "procedure": "(§1) In order to investigate the role of HDAC11 in the self-renewal of stem-like cancer cells, sphere formation assays were conducted with NSCLC side population (SP) stem-like cells. A549 and NCI-H1650 cells were obtained from the ATCC. Asynchronously growing A549 or NCI-H1650 cells were washed once with phosphate buffered saline (PBS) and harvested using Accutase solution (Sigma Aldrich) and resuspended in DMEM-F12K medium (Gibo, Life Technologies) with 2% fetal bovine serum (FBS) at 1×10^6 cells/ml density. The cells were incubated with 4 μg/ml of Hoechst 33342 dye (Life Technologies) for 90 min at 37° C. in the presence or absence of 1 μM Fumitremorgin C (Sigma-Aldrich) which was used as a control sample to set the gate during sorting. The Hoechst stained cells were sorted using the BD FACSAria cell sorter. The sorted SP cells were plated in 96-well ultra-low adherent plate (Corning Inc) at the cell density of 1000 cells/100 μl/well in stem cell selective medium (DMEM:F12K supplemented with N2 supplement, 10 ng/mL epidermal growth factor (EGF) and 10 ng/ml basic fibroblast growth factor (bFGF) (Sigma-Aldrich) at 37° C. for 7-10 days. The spheres were observed and acquired using EVOS FL microscope system (Life Technologies Inc., USA). The numbers of spheres greater than or equal to 50 μm were counted. To study the effect of the HDAC11 inhibitors, the appropriate concentrations of the compounds were added to the wells on Day 0 and Day 5 and the image acquisition and analysis of the spheres were performed on Day 10. The sphere formation assays were performed twice with triplicates of each treatment in every assay."}, "[2]": {"test_system": "H1650 side population stem-like cells (EGFR mutation)", "assay": "Sphere formation assay with stem-like side population NSCLC cells", "assay_type": "cell-based", "settings": "H1650 SP cells, 0.5-5.0 μM, Day 10", "procedure": "as §1"}, "SET-2 cells": {"test_system": "SET-2 cells", "assay": "Cell proliferation assay (CCK8)", "assay_type": "cell-based", "settings": "Ruxolitinib-resistant SET-2", "procedure": "(§2) This example describes inhibition of in vitro cell proliferation with exemplary HDAC11 inhibitors. The effects of selective HDAC11 inhibitors on cell proliferation were measured in cell lines containing the MPN-associated mutations MPL W515L (Ba/F3 MPL W515L) and JAK2 V617F (Ba/F3 JAK2 V617F, HEL 92.1.7, SET-2). HEL 92.1.7 and SET-2 cells were purchased from the ATCC and DSMZ, respectively. Ba/F3 cells overexpressing either MPLW515L or JAK2V617F, which were cytokine independent, were generated by transforming Ba/F3 cells with retroviruses overexpressing either MPL W515L or JAK2V617F. For survival assays, cells were seeded in 96-well plates at the density of 0.1 million/ml with addition of indicated compounds and incubated at 37° C. for 48 h. CCK8 solution (Dojindo, Rockville, Md.) was added and absorbance at 450 nm was measured after 3 hours of incubation. Readings were normalized to dimethylsulfoxide (DMSO)-treated wells."}, "HEL 92.1.7 cells": {"test_system": "HEL 92.1.7 cells", "assay": "Cell proliferation assay (CCK8)", "assay_type": "cell-based", "settings": "HEL 92.1.7, 48 h", "procedure": "as §2"}, "[3]": {"test_system": "H1650 cells co-cultured with primary CAFs", "assay": "Co-culture assay with cancer cells and cancer associated fibroblasts", "assay_type": "cell-based", "settings": "1:1 co-culture", "procedure": "(§3) The effects of selective HDAC11 inhibition on cancer cells and cancer associated fibroblasts (CAFs) were determined in a co-culture assay. The cells were first trypsinized and collected in serum containing medium and were further incubated in same media at 37° C. for 15-20 min for recovery. The cells were resuspended in serum free media at 1×10^6 cells/ml density and stained with 10 uM of cytotracker green (Cancer associated fibroblasts) or cytotracker red dye (H1650 cells) (Life Technologies Inc) at 37° C. for 90 min. The stained cells were washed twice with serum free medium to remove excess dye at 1500 rpm for 5 min. The cytotracker green stained CAFs were mixed with cytotracker red stained H1650 cells in 1:1 ratio and grown in 96-well tissue culture plate overnight. The HDAC11 inhibitors were then added to the mixed adhered cells (CAFs+H1650) at appropriate concentrations. The images were taken on Day 0 and after every 24 hours using EVOS FL microscope system and EVOS software (Life Technologies Inc)."}, "[4]": {"test_system": "primary CAFs from human lung cancer", "assay": "Co-culture assay with cancer cells and cancer associated fibroblasts", "assay_type": "cell-based", "settings": "1:1 co-culture with H1650", "procedure": "as §3"}, "H1650 SP cells": {"test_system": "H1650 SP cells", "assay": "Tube formation assay with stem-like side population NSCLC cells", "assay_type": "cell-based", "settings": "H1650 SP cells on Matrigel", "procedure": "The angiogenic tubule assay was performed with the sorted side population cells to analyze vascular mimicry. The H1650 side population cells were sorted as mentioned above and they were further grown on Matrigel (BD Biosciences) to form angiogenic tubule-like structures. 100 μl of thawed Matrigel was layered on the wells of 96-well tissue culture plates and allowed to polymerize at 37° C. for 30 min. Sorted H1650 SP cells were layered (12000 cells/100 μl of Matrigel) on the polymerized matrigel and incubated overnight at 37° C. Tubule formation was assessed under bright field using EVOS FL microscope system and images were acquired with EVOS software (Life Technologies Inc., USA). For the treatment with HDAC11 inhibitors, appropriate concentrations of the compounds were added to the cells when they were seeded on Matrigel for the tubule formation assay."}}}
{"smiles": "O=C(NO)c1cccc(Nc2nc3cc(Cl)c(Cl)cc3o2)c1", "note": "[HDTK010, 3-((5,6-dichlorobenzo[d]oxazol-2-yl)amino)-N-hydroxybenzamide]", "values": [{"measurement": "selectivity over HDACs 1-10", "setting": "HDAC11", "result": "> 200", "unit": "fold"}, {"measurement": "IC50", "setting": "HDAC11", "result": "1 to 5", "unit": "nM"}, {"measurement": "growth of stem-like cancer cells (sphere formation)", "setting": "[1]", "result": "prevented growth"}, {"measurement": "growth of stem-like cancer cells (sphere formation)", "setting": "[2]", "result": "prevented growth"}, {"measurement": "growth of SET-2 cell line generated to be Ruxolitinib-resistant", "setting": "SET-2 cells", "result": "inhibited the growth"}, {"measurement": "growth of the HEL 92.1.7 cell line", "setting": "HEL 92.1.7 cells", "result": "inhibited the growth"}]}
{"smiles": "O=C(NO)c1cccc2c1C[C@]1(CCN(Cc3ccc(Cl)c(C(F)(F)F)c3)C1=O)C2", "note": "[HDTK054, (S)-1′-(4-chloro-3-(trifluoromethyl)benzyl)-N-hydroxy-2′-oxo-1,3-dihydrospiro[indene-2,3′-pyrrolidine]-4-carboxamide]", "values": [{"measurement": "growth of H1650 cells co-cultured with primary CAFs", "setting": "[3]", "result": "inhibit the growth"}, {"measurement": "effects on CAFs", "setting": "[4]", "result": "minimal effects"}, {"measurement": "selectivity over HDACs 1-10", "setting": "HDAC11", "result": "> 200", "unit": "fold"}, {"measurement": "IC50", "setting": "HDAC11", "result": "10 to 50", "unit": "nM"}, {"measurement": "growth of stem-like cancer cells (sphere formation)", "setting": "[1]", "result": "prevented growth"}, {"measurement": "growth of stem-like cancer cells (sphere formation)", "setting": "[2]", "result": "prevented growth"}, {"measurement": "tubule formation", "setting": "H1650 SP cells", "result": "inhibited tubule formation"}]}
